Source: patent publication US20040006103A1, “Use of chloroquine, hydroxychloroquine and 4 amino-quinolinic derivatives to obtain a drug for the anti retroviral therapy, active towards HIV sensitive strains and towards HIV strains which are resistant to both nucleosidic and non-nucleosidic reverse transcriptase inhibitors and to proteases …” (VALPHARMA S.A., priority 2002, published 2004)

Experiments:
[1] = test system: HIV-1 clinical isolated, characterised by mutations in the RT gene inducing geno-phenotypic resistance to ABC; experiment: p24 production susceptibility test (ACTG protocol), Table 5; type: cell-based; settings: PBMC, ratio to HIV-IIIB
Source text: (§1) For the phenotype of the nucleosidic, non-nucleosidic and proteases inhibitors was utilised a method which consider the use of human PBMC and the protocol standardised by the AIDS Clinical Trials Group, after verifying the genotype by sequence analysis.
(§2) In order to assay in vitro the susceptibility to chloroquine and hydroxychloroquine of the viral strains, it was used the protocol of the ACTG which is characterised by the measure, of the production of antigen p24 in strongly infected cells.
(§3) The susceptibility of the viral strains to chemotherapics was determined in cell cultures, prepared in 96 wells microplates, using, for the infection, 0.1 MOI.
(§4) The supernatant of the infected cultures (either in absence or in presence of different concentrations of chemotherapic) were tested for the production of p24 after 7 days, using an ELISA test which is commercially available.
(§5) The concentrations of chloroquine and hydroxychloroquine tested ranged from 0.5 to 15 uM. At the same time non-infected cells were incubated with concentrations of chloroquine and hydroxychloroquine ranging from 0 to 50 uM to evaluate the toxicity of the compound.
(§6) After 4 day from the infection, half the cellular medium was replaced with a medium containing the corresponding dilution of chloroquine and hydroxychloroquine. The percentage of inhibition of the HIV replication, induced by chloroquine and hydroxychloroquine, was determined, after 7 day from the infection, comparing the levels of p24 of this cultures and that of the control, infected and not treated with chloroquine and hydroxychloroquine.
(§7) Therefore, the E.C.50 of chloroquine and hydroxychloroquine expresses the concentration of chemotherapic that inhibits the 50% of production of p24 and the values were calculated using linear and non linear regression analysis (the significativity for the non linear regression was R^2>0.95).
(§8) In the same experimental conditions and in the same day, but with similar concentrations of chloroquine and hydroxychloroquine, it was evaluated the vitality of the infect cell cultures, and this was expressed as I.C.50.
(§9) I.C.50 (Inhibitory Concentration) indicates the concentration of the chemotherapic agent inhibiting the vitality of the cell cultures at a rate of 50%, when there is not infection.

[2] = test system: HIV-1 strains geno-phenotypically resistant to EFV; experiment: p24 production susceptibility test, Table 7, MT-2 cells; type: cell-based; settings: ratio to HIV-IIIB
[3] = test system: HIV-1 strains geno-phenotypically resistant to EFV; experiment: as above; type: cell-based; settings: MT-2, ratio to HIV-IIIB
Source text: as §1, §2, §3, §4, §5, §6, §7, §8, §9

[4] = test system: HIV-1 clinical isolated, characterised by mutations on the protease gene inducing geno-phenotypic resistance to NFV; experiment: p24 production susceptibility test, Table 10, H-9 cells; type: cell-based; settings: H-9, ratio to HIV-IIIB
Source text: as §1, §2, §3, §4, §5, §6, §7, §8, §9

[5] = test system: HIV-1 clinical isolated, characterised by mutations on the protease gene inducing geno-phenotypic resistance to NFV; experiment: p24 production susceptibility test (ACTG protocol), Table 10, PBMC; type: cell-based; settings: ratio to HIV-IIIB
Source text: as §1, §2, §3, §4, §5, §6, §7, §8, §9

[6] = test system: HIV clinical isolated, characterised by mutations in the RT gene inducing geno-phenotypic resistance to AZT; experiment: p24 production susceptibility test (ACTG protocol), Table 1; type: cell-based, HIV-1; settings: PBMC, ratio to HIV-IIIB
Source text: as §1, §2, §3, §4, §5, §6, §7, §8, §9

[7] = test system: HIV clinical isolated, characterised by mutations in the RT gene inducing geno-phenotypic resistance to ddI; experiment: p24 production susceptibility test (ACTG protocol), Table 2; type: cell-based, HIV-1; settings: PBMC, ratio to HIV-IIIB
Source text: as §1, §2, §3, §4, §5, §6, §7, §8, §9

HIV = settings: 16 weeks, cited from earlier work
[8] = test system: HIV-1 clinical isolated, characterised by mutations in the protease gene inducing geno-phenotypic resistance to SQV; experiment: p24 production susceptibility test (ACTG protocol), Table 8; type: cell-based; settings: PBMC, ratio to HIV-IIIB
Source text: as §1, §2, §3, §4, §5, §6, §7, §8, §9

[9] = test system: HIV-1 clinical isolated, characterised by mutations in the protease gene inducing geno-phenotypic resistance to IDV; experiment: p24 production susceptibility test (ACTG protocol), Table 9; type: cell-based; settings: PBMC, ratio to HIV-IIIB
Source text: as §1, §2, §3, §4, §5, §6, §7, §8, §9

[10] = test system: HIV-1 clinical isolated, characterised by mutations in the RT gene inducing geno-phenotypic resistance to d4T; experiment: p24 production susceptibility test (ACTG protocol), Table 4; type: cell-based; settings: PBMC, ratio to HIV-IIIB
Source text: as §1, §2, §3, §4, §5, §6, §7, §8, §9

[11] = test system: HIV-1 strains geno-phenotypically resistant to NVP; experiment: p24 production susceptibility test, Table 6, MT-2 cells; type: cell-based; settings: ratio to HIV-IIIB
[12] = test system: HIV-1 strains geno-phenotypically resistant to NVP; experiment: as above; type: cell-based; settings: MT-2, ratio to HIV-IIIB
Source text: as §1, §2, §3, §4, §5, §6, §7, §8, §9

For `Nc1nc(NC2CC2)c2ncn([C@H]3C=C[C@@H](CO)C3)c2n1` [ABC, Abacavir], the “Fen. ABC (fold)” value ([1]; Gen. K65R L74V M184V) was 10X fold, the “Fen. ABC (fold)” value ([1]; Gen. K65R S68G F77L Y115F Q151M M184V) was 40X fold and the “Fen. ABC (fold)” value ([1]; Gen. L74V M184F) was 10X fold. For the same molecule, the “Fen. ABC (fold)” value ([1]; Gen. L74V Y115F M184V) was 10X fold and the “Fen. ABC (fold)” value ([1]; Gen. M41L D67N M184V L210W T215Y) was 10X fold.

In the case of `O=C1Nc2ccc(Cl)cc2[C@@](C#CC2CC2)(C(F)(F)F)O1` [EFV, Efavirenz], the “Fen. EFV (fold)” value ([2]; Gen. K103N V108D) is reported as >80X fold, the “Fen. EFV (fold)” value ([2]; Gen. K103N) is reported as >80X fold and the “Fen. EFV (fold)” value ([2]; Gen. Y181C) is reported as 20X fold. The “Fen. EFV (fold)” value ([3]; Gen. K101D K103N) was >80X fold, the “Fen. EFV (fold)” value ([3]; Gen. K103N Y181C) was >80X fold and the “Fen. EFV (fold)” value ([3]; Gen. L100I K103N) was >80X fold.

In the case of `Cc1c(O)cccc1C(=O)N[C@@H](CSc1ccccc1)[C@H](O)CN1C[C@H]2CCCC[C@H]2C[C@H]1C(=O)NC(C)(C)C` [NFV, Nelfinavir], the “Fen. NFV (fold)” value ([4]; Gen. D30N) is reported as 30X fold, the “Fen. NFV (fold)” value ([4]; Gen. V82A) is reported as 20X fold and the “Fen. NFV (fold)” value ([5]; Gen. D30N A71V) is reported as 30X fold. For the same molecule, the “Fen. NFV (fold)” value ([5]; Gen. D30N M46V A71V) was 30X fold, the “Fen. NFV (fold)” value ([5]; Gen. G48V V92A) was >80X fold and the “Fen. NFV (fold)” value ([5]; Gen. V82F L90M) was >80X fold.

In the case of `Cc1cn([C@H]2C[C@H](N=[N+]=[N-])[C@@H](CO)O2)c(=O)[nH]c1=O` [AZT, Zidovudine], the “Fen AZT (fold)” value ([6]; Gen. D67N K70R T215F K219Q) is reported as 20X fold, the “Fen AZT (fold)” value ([6]; Gen. D 67 Ns K 70N T215F K219Q) is reported as >80X fold and the “Fen AZT (fold)” value ([6]; Gen. K70R T215F K219Q) is reported as 20X fold. The “Fen AZT (fold)” value ([6]; Gen. M41I M184V L210W R221K T215Y) was 20X fold, the “Fen AZT (fold)” value ([6]; Gen. M41I T215Y) was 40X fold and the “Fen AZT (fold)” value ([6]; Gen. M41L D67N K70RM 184V T215F) was >80X fold. The “Fen AZT (fold)” value ([6]; Gen. M41LD 76N K70R T215Y) was >80X fold, the “Fen. AZT (fold)” value ([7]; Gen D67N K70R M184V T215Y) was 40X fold and the “Fen. AZT (fold)” value ([7]; Gen D67N K70R T215F K70R) was >80X fold. The “Fen. AZT (fold)” value ([7]; Gen K70R T215F K219Q) was 20X fold, the “Fen. AZT (fold)” value ([7]; Gen M4IL M184V L210W R211KL 214F T215Y) was 20X fold and the “Fen. AZT (fold)” value ([7]; Gen M41I T215F) was 40X fold. The “Fen. AZT (fold)” value ([7]; Gen M41L D67N K70R M184V T215Y) was >80X fold, the “Fen. AZT (fold)” value ([7]; Gen M41L D67N K70R T215Y) was >80X fold and the negative events (HIV; hydroxychloroquine 800 mg/day, AZT 500 mg/day) was “no negative events were observed”. For the same molecule, the “patients with an increase of the plasmatic viremia at the end of the treatment” value (HIV; AZT 500 mg/day (n=37)) was 8 patients.

For `CC(C)(C)NC(=O)[C@@H]1C[C@@H]2CCCC[C@@H]2CN1C[C@@H](O)[C@H](Cc1ccccc1)NC(=O)[C@H](CC(N)=O)NC(=O)c1ccc2ccccc2n1` [SQV, Saquinavir], the “Fen. SQV (fold)” value ([8]; Gen. G48V I84V A74V L90M) was 40X fold, the “Fen. SQV (fold)” value ([8]; Gen. G48V V82A) was >80X fold and the “Fen. SQV (fold)” value ([8]; Gen. I84V L90M) was >80X fold. For the same molecule, the “Fen. SQV (fold)” value ([8]; Gen. M46I G48V L63P L90M) was 20X fold and the “Fen. SQV (fold)” value ([8]; Gen. V82A L90M) was 20X fold.

For `CC(C)(C)NC(=O)[C@@H]1CN(Cc2cccnc2)CCN1C[C@@H](O)C[C@@H](Cc1ccccc1)C(=O)N[C@H]1c2ccccc2C[C@H]1O` [IDV, Indinavir], the “Fen. IDV (fold)” value ([9]; Gen. G48V V82A) was >80X fold, the “Fen. IDV (fold)” value ([9]; Gen. I84V L90M) was 20X fold and the “Fen. IDV (fold)” value ([9]; Gen. K20R E35D M36I I54V V82T) was 10X fold. The “Fen. IDV (fold)” value ([9]; Gen. L10R M46I L63P V82T) was 10X fold and the “Fen. IDV (fold)” value ([9]; Gen. V82F L90M) was >80X fold.

In the case of `Cc1cn([C@H]2C=C[C@@H](CO)O2)c(=O)[nH]c1=O` [D4T, Stavudine], the “Fen. D4T (fold)” value ([10]; Gen. K65R F77L Y115F Q151M M184V) is reported as 40X fold, the “Fen. D4T (fold)” value ([10]; Gen. K65R F116Y Q151M) is reported as 40X fold and the “Fen. D4T (fold)” value ([10]; Gen. M41I T69SSS T215Y) is reported as 10X fold. The “Fen. D4T (fold)” value ([10]; Gen. T69SSS T215Y) was 10X fold and the “Fen. D4T (fold)” value ([10]; Gen. V75I F77L F116Y Q151M) was 20X fold.

For `Cc1ccnc2c1NC(=O)c1cccnc1N2C1CC1` [NVP, Nevirapine], the “Fen. NVP (fold)” value ([11]; Gen. K103N) was >80X fold, the “Fen. NVP (fold)” value ([11]; Gen. Y181C) was >80X fold and the “Fen. NVP (fold)” value ([12]; Gen. G190E) was >80X fold. For the same molecule, the “Fen. NVP (fold)” value ([12]; Gen. V106A) was >80X fold.
